The source made the active and inactive calls. A value given as a limit tells only on which side of the number the result lay.

Experiment [1] concerns the target Sphingosine 1-phosphate receptor 2 (Homo sapiens, UniProt O95136). Kind of experiment: Dose Response Cell Based Assay for Antagonists of the S1P2 Receptor. [Related pubchem assays: 856, 736 ]. Format: functional.
Experiment [2] addresses T1, Sphingosine 1-phosphate receptor 4 (Homo sapiens, UniProt O95977).
T1 sequence (O95977 whole entry): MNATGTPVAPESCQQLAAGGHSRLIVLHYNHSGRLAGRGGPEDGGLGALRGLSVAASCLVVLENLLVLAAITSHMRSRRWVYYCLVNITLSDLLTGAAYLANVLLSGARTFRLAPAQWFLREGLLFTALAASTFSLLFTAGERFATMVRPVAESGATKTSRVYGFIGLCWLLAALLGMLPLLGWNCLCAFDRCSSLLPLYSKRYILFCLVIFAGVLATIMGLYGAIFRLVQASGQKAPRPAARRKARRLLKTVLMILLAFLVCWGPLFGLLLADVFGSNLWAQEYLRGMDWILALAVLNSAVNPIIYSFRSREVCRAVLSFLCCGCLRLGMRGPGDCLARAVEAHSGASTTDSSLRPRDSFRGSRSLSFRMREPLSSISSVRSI
Kind of experiment: Fluorescence dose response cell-based high throughput screening assay for antagonists of the Sphingosine 1-Phosphate Receptor 4 (S1P4). [Related pubchem assays: 1524 (Confirmation in triplicates.), 1510 (Primary screen.)]. Format: functional.

Experiment [3] has as its target Sphingosine 1-phosphate receptor 1 (Homo sapiens, UniProt P21453). Format: functional.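 Further: Tango beta-arrestin reporter U2OS cells stimulated with S1P near its EC80; inhibitor potency meaning antagonism of receptor activation by the natural agonist.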
Experiment [4] can be described thus: HEK-293T viability loss after treatment – luminescence, T-cell screen hits, cytotoxicity control for TCR NF-kB inhibitor project, dose response (AID 489026).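 Further: cells exposed to compound about 14 hours before the viability readout.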 The class given is functional, cell-based.
The subject of a further experiment is CHO. Briefly: CHO cell viability loss, potency – luminescence, cytotoxicity control for TLR9-MyD88 binding inhibitor project, dose response (AID 588339).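 Further: CHO cells stably coexpressing TLR9 and MyD88 fusions from primary screen; compound exposure lasted 48 hours before viability readout.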 The settings on record: Cricetulus griseus. The class given is functional, cell-based, hamster.
Experiment [5] concerns the target T2, Replicative DNA helicase DnaB (Mycobacterium tuberculosis, UniProt P9WMR3).
T2 sequence (P9WMR3 whole entry): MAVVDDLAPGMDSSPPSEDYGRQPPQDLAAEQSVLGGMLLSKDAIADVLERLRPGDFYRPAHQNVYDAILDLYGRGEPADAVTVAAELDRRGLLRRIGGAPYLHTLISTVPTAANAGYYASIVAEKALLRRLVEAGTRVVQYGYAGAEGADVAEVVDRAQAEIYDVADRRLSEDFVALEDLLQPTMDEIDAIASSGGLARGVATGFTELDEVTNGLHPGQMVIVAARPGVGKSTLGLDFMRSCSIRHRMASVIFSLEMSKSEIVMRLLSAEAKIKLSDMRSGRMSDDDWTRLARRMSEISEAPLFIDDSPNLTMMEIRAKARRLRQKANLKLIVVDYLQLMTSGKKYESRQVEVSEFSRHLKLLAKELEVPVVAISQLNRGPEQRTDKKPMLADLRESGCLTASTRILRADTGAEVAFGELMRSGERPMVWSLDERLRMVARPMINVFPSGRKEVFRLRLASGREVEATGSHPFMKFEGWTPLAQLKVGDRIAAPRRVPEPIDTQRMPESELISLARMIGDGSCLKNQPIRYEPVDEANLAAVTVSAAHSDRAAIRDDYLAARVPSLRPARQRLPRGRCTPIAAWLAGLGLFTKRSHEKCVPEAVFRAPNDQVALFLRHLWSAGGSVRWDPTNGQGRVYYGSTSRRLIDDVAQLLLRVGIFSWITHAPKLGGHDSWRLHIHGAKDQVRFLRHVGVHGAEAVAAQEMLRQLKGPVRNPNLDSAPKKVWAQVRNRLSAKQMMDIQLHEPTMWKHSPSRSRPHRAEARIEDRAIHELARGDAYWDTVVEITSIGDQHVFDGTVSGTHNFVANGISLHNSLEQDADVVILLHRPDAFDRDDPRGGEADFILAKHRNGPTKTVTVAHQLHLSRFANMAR
Briefly: DnaB intein splicing inhibitors, dose response, biochemical, cell-free fluorescence (AID 449749). Format: functional.

Another experiment concerns the target T3, Protein RecA (Mycobacterium tuberculosis, UniProt P9WHJ3).
T3 sequence (P9WHJ3 whole entry): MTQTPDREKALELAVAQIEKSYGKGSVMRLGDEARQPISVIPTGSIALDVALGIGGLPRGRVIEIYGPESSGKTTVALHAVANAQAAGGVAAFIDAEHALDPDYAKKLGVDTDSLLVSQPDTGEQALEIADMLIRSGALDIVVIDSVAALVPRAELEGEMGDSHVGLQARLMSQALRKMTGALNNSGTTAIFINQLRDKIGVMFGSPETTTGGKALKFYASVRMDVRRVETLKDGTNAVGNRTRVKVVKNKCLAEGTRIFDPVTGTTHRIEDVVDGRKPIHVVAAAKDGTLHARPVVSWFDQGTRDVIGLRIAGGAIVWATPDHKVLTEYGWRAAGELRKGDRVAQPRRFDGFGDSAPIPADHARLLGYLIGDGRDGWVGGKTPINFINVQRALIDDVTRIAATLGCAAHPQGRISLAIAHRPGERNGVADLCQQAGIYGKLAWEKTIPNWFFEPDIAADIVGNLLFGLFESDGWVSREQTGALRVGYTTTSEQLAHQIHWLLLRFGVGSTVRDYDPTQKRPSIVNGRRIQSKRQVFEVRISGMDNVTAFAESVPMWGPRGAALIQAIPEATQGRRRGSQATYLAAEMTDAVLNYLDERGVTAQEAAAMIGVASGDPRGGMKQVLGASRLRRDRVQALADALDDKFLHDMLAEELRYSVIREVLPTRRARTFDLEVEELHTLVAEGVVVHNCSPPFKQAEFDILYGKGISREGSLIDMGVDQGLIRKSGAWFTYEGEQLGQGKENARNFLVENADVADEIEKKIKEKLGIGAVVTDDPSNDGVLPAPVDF
Kind of experiment: Fluorescence Cell-Free Homogeneous Dose Retest to Identify Inhibitors of RecA-Intein Splicing Activity. [Related pubchem assays (depositor defined):AID2097, AID2223, AID489010, AID492950]. The class given is functional.

Another experiment concerns the target Beta Lactamase (Pseudomonas aeruginosa, UniProt Q932Y6). Briefly: BLA reporter interference, concentration series – BLA reporter cells, FRET fluorescence, artefact control for TLR9-MyD88 binding inhibitor project, dose response (AID 588341).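 Further: cell based assay in CHO-K1 cells stably expressing beta-lactamase.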 Format: cell-based.
A short description of experiment [6]: reduction of Shn3 3'UTR-driven luciferase in osteoblasts – cell-based, Clone20 osteoblasts, firefly luciferase, cherry-picked, dose response (AID 624132).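 Further: firefly luciferase luminescence from reporter carrying the Shn3 3'UTR in osteoblasts.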 The class given is functional.
The nature of experiment [7]: loss of viability in HepG2 cells – cell-based, CellTiter-Glo, cherry-picked, cytotoxicity control for Shn3 inhibitor project, dose response (AID 624134). The class given is functional.
Experiment [8] can be described thus: non-specific 3'UTR reporter inhibition in Clone20-Shn3RL – cell-based, Renilla luciferase, cherry-picked, counter-screen for Shn3 inhibitor project, dose response (AID 624133). Format: functional.
In experiment [9] the target is T4, Sentrin-specific protease 8 (Homo sapiens, UniProt Q96LD8).
T4 sequence (Q96LD8 whole entry): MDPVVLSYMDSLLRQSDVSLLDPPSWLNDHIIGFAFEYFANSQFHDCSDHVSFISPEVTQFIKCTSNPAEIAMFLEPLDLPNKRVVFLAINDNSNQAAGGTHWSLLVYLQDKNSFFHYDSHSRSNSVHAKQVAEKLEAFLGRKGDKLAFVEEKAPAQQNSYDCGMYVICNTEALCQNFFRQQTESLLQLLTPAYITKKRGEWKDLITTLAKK
Kind of experiment: inhibition of human SENP8 cleavage activity – biochemical, luminescence, SAR follow-up (AID 504501). Format: functional.

The next experiment deals with T5, Caspase-3 (Homo sapiens, UniProt P42574).
T5 sequence (P42574 whole entry): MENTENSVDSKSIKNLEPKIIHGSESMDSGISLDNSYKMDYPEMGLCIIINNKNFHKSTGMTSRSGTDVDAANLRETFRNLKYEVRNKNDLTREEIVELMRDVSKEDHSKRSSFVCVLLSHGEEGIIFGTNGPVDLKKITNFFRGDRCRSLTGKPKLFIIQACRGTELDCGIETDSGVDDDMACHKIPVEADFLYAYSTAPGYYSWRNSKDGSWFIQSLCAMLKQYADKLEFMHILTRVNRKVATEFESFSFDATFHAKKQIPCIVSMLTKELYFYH
Kind of experiment: SAR Analysis of small molecule inhibitors of Sentrin-specific proteases (SENPs) using a Caspase-3 Selectivity assay. [Related pubchem assays (depositor defined):AID2540, AID2599, AID434973, AID489001]. The class given is functional.

For experiment [10], the target named is T6, Sentrin-specific protease 6 (Homo sapiens, UniProt Q9GZR1).
T6 sequence (Q9GZR1 whole entry): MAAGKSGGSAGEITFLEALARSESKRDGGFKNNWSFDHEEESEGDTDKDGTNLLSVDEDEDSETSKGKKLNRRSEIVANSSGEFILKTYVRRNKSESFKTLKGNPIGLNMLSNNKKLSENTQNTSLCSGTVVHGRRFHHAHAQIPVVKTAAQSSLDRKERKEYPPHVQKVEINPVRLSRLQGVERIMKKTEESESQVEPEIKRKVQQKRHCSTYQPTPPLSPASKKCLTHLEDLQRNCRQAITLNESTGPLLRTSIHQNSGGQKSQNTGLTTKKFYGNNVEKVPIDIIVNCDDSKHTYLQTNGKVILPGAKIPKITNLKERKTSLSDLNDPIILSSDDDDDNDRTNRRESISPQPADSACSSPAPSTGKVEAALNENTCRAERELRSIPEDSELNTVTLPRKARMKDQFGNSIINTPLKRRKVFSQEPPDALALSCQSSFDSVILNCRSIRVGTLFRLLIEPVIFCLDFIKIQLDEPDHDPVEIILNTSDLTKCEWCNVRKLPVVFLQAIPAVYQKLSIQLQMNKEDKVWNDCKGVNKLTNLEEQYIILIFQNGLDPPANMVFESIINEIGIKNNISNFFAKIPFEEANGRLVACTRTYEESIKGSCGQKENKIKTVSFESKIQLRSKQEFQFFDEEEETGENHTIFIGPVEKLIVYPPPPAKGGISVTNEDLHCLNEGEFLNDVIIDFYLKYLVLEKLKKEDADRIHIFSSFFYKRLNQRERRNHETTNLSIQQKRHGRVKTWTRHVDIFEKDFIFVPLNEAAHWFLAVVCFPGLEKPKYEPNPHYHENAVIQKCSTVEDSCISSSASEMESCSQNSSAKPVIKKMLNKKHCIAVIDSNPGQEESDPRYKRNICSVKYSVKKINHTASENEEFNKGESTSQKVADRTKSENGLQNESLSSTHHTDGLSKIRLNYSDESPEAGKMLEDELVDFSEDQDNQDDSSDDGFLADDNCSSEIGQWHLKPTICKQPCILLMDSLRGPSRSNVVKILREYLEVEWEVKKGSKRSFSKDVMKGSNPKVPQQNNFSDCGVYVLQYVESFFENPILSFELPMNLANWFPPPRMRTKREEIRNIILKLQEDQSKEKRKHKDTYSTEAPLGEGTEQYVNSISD
Kind of experiment: SAR Analysis of small molecule inhibitors of Sentrin-specific protease 6 (SENP6) using a Luminescent assay. [Related pubchem assays (depositor defined):AID2582, AID2599]. Format: functional.

For experiment [11], the target named is T7, Sentrin-specific protease 7 (Homo sapiens, UniProt Q9BQF6).
T7 sequence (Q9BQF6 whole entry): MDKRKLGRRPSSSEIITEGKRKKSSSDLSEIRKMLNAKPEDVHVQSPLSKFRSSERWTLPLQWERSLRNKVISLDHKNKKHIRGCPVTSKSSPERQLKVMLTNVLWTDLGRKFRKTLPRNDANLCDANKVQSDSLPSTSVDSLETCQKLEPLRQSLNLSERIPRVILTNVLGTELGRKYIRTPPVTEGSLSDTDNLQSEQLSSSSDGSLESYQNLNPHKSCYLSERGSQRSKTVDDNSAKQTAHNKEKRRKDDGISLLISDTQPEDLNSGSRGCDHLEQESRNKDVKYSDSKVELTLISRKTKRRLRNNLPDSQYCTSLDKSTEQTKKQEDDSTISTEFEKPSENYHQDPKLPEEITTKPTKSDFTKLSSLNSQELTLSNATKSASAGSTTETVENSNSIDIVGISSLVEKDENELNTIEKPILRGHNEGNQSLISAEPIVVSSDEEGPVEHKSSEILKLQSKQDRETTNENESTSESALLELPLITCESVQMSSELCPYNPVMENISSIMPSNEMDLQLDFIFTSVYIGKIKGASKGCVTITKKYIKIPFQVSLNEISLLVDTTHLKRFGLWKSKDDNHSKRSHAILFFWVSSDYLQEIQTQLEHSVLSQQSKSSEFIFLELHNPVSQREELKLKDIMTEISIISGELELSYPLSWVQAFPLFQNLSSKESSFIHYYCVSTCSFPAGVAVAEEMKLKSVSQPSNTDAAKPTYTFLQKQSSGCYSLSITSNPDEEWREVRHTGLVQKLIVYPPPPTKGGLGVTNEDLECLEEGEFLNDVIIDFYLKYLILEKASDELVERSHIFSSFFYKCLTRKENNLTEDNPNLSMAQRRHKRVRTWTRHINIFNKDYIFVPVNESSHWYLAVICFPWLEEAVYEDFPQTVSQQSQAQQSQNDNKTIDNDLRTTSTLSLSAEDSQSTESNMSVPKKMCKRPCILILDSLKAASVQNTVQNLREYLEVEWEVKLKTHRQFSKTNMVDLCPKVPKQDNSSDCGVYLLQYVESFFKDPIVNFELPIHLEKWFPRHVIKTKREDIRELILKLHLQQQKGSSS
Briefly: inhibition of human SENP7 cleavage activity – biochemical, luminescence, SAR follow-up (AID 504497). Format: functional.

Beta Lactamase, sequence (Q932Y6 whole entry): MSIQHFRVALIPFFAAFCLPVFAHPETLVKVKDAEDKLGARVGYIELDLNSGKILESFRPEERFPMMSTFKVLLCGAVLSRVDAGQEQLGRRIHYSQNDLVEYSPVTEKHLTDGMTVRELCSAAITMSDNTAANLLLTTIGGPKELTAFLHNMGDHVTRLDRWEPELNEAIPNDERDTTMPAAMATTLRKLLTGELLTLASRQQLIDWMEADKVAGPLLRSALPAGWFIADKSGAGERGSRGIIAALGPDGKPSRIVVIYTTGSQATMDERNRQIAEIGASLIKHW
Sphingosine 1-phosphate receptor 2, sequence (O95136 whole entry): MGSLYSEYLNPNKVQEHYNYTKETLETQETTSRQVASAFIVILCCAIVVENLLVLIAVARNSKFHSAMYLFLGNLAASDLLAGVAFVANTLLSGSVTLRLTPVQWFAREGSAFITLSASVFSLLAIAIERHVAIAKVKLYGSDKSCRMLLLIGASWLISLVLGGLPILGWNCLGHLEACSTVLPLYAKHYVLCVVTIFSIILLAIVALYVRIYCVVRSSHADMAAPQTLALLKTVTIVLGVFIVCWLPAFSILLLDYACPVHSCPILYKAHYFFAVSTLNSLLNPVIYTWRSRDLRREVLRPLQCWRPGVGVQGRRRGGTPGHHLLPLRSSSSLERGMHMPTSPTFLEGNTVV
Sphingosine 1-phosphate receptor 1, sequence (P21453 whole entry): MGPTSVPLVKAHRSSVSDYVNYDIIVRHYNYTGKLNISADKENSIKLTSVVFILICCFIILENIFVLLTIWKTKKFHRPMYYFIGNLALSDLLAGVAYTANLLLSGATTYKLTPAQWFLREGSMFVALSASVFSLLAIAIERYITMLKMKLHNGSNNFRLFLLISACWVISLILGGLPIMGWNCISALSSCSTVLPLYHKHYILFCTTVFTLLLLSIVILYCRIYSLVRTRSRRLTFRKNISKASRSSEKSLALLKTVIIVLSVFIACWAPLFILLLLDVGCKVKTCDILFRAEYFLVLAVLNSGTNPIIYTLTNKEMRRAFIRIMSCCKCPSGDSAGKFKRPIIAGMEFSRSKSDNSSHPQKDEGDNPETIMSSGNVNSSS

For the molecule `COc1ccc(CS(=O)(=O)/C(Cl)=C(/Cl)C(=O)Nc2ccc(OC)nc2)cc1`, the IC50 in experiment [1] is 1.67 µM (active); in experiment [2], 0.852 µM (active); in experiment [3], 6.21 µM (active); in experiment [4], 27.9 µM (inactive); in the experiment on CHO, 2.03 µM (active); at Beta Lactamase it was > 49.7 µM (inactive). Moreover, the AC50 was 3.88 µM (active) in [5], < 0.26 µM (active) in experiment [6], 10.6 µM (active) in experiment [7] and 6.84 µM (active) in experiment [8]. Moreover, at Protein RecA, the EC50 is 3.34 µM (active).
As for `CCOc1ccc2nc(NC(=O)c3nc(SC(C)C)ncc3Cl)sc2c1`, the IC50 (in experiment [9]; on Caspase-3; in experiment [10]; in experiment [11]) was > 99 µM (inactive) in each case.

For orientation: IC50 means the concentration needed to halve the response being measured. Broadly, the AC50 is the concentration at which the activity in the assay is half-maximal. One may read the EC50 as the concentration at which the effect is half-maximal.

For the origin of these results see ChEMBL document CHEMBL1201862, “PubChem BioAssay data set” (2004).
